In patent US20100206318A1, “FILTER FOR A TOBACCO PRODUCT” (BIOHIT OYJ, priority 2007, published 2010):

Experiment: acetaldehyde in saliva of testees during smoking through cigarette holder with filter (headspace gas chromatography)
Format: in vivo, human
Conditions: FIG. 1
Description: The entire filter of Marlboro Red was removed or, in some tests, 2-3 mm of the original filter was left in the cigarette.
In the tests, ready commercial cigarette holders/mouthpieces of Denicotea, www.denicotea.de were used. In the cigarette holders/mouthpieces, plastic cylinder-shaped “containers” were used, the filtering material being packed in the containers. The original content (intended for the removal of nicotine) of the containers was removed and replaced with the material that was used in the study. The outer dimensions of the container were: diameter 8 mm and length 35 mm.
Cellulose wadding (c. 100 mg), filter paper (Whattman), Commercial filters: Smart (the importer: Altadia Finland Oy) and Ventti (Philip Morris Finland Oy),
Cysteine was dissolved in distilled water, 30-180 mg of L-Cysteine/1 ml. The manufacturer: Fluka, 30089.
The filter material that had been packed in plastic cylinders was moistened with a water-cysteine solution (50-250 μl), and the filter container thus made was placed in the Denicotea cigarette holder. After this, the testees smoked the cigarettes that had been placed in the mouthpieces. During smoking, saliva samples were collected from those participating in the tests and the acetaldehyde in the saliva was analyzed by gas chromatography, Perkin-Elmer, HS40, headspace Gas Chromatograph.

N[C@@H](CS)C(=O)O [cysteine, L-Cysteine]
filterability, dependence on amount: dependent on the amount of cysteine
